Experimental data published in patent US5969174A, “Competitive inhibitors of glyoxalase I and method of generating such competitive inhibitors inside tumor cells” (priority 1998, dated 1999).
pKi: −log10 of the molar value.

Key:
[1] = test system: L1210 cells; assay: Cell permeability / intracellular appearance of enediol analog in L1210 cells; format: in vitro ADME, murine; settings: L1210 cells
Method: In order to understand the mechanism of intracellular delivery of the enediol analogs, suspensions of L1210 cells were separately incubated with the diacid 2 and with the corresponding diethyl ester 2(Et)2. The rate of appearance of these species in the intracellular fraction was then monitored as a function of time by reverse-phase HPLC (FIG. 4). […] After 90 minutes, the concentration of 2 decreased, possibly due to a combination of factors including (a) 10-20% cell death over the course of the experiment, (b) hydrolytic deethylation of extracellular 2(Et)2, and (c) GlxII-catalyzed decarbamoylation of intracellular 2.
To suspensions of L1210 cells (~1.5(10^6 cells/ml) in RPMI 1640 medium, containing 10% heat-inactivated fetal calf serum, gentamycin (10 μg/ml) and L-glutamate, at 37° C., were added fixed concentrations of 2a. Aliquots (1 ml) were removed from the cell suspension as a function of time, overlaid onto 0.4 ml of silicone oil (SF-1250 silicone fluids, General Electric Co., Silicone Products Division, Waterford, N.Y.) contained in an eppendorf centrifuge tube and centrifuged at 11,000×g (15 min) at 25° C. The supernatant and silicone oil were decanted from the cell pellet and residual oil removed from the inside of the centrifuge tube with a cotton swab. To the pellet was added 1 ml 70% ethanol in water and the suspension sonicated for 5 minutes. The denatured protein was sedimented by centrifugation (11,000×g, 15 min) and the clear supernatant was removed. The supernatant was brought to dryness under a stream of argon, and the resulting residue was fractionated by reverse-phase HPLC (Waters μBondapak C18, 0.78(30 cm), using a mobile phase composed of methanol:water (1:1) containing 0.25% acetic acid at a flow rate of 2 ml/min. The integrated intensity of the peak corresponding S-(N-p-chlorophenyl-N-hydroxycarbamoyl) glutathione was determined at λ=260 nm. Concentrations were extrapolated from standard curves that were linear in the range 0.1 to 4.0 nmoles (r=0.997).

[2] = molecular target: human erythrocyte GlxI; settings: FIG. 8; read-out: Ki, tight-binding competitive inhibitor of human glyoxalase I; cited from earlier work
[3] = n-octanol/water partition coefficient
[4] = Acyl-interchange reaction with glutathione in a cell-free system; format: physicochemical
Method: In principle, an acyl-interchange reaction might serve as the basis of an improved prodrug strategy, provided that the acylating reagent diffuses rapidly across cell membranes and then reacts rapidly with intracellular glutathione to give the enediol analog. Three N-hydroxycarbamate thioethyl esters (2(a-c)) and the corresponding sulfoxides (3(a-c)) were prepared (FIG. 7) and their rates of acyl-interchange with glutathione in a cell free system evaluated (Table II). Sulfoxidation of N,N-di-n-propylcarbamate thioalkyl esters activates these species for acyl-interchange with glutathione. […] The N--OH function appears to inductively activate the sulfoxides for acyl-interchange, as the rate constant for 3a exceeds that of the corresponding N--CH3 derivative 3c by 13-fold. The products of the interchange reactions were confirmed as the corresponding enediol analogs, on the basis that their UV spectra and their migratory properties on a reverse-phase C18 column were identical with those of authentic samples of enediol analog.
Second order rate constants for the
acyl-interchange reactions between glutathione and the list thioesters
CH3 CH2 XC(O)N(Y)Z + GSG ---(k2)--> GSC(O)B(Y)Z +
Conditions: Potassium phosphate buffer (50 mM), pH 7.5, 5% ethanol, […]

[5] = test system: HL60 cells; settings: cited from earlier work

Structure (SMILES): N[C@@H](CCC(=O)N[C@@H](CSC(=O)N(O)c1ccc(Cl)cc1)C(=O)NCC(=O)O)C(=O)O [Compound 2, S-(N-p-chlorophenyl N-hydroxycarbamoyl)glutathione]
- intracellular uptake in words [1]: no significant time-dependent increase in intracellular [2]
- pKi [2]: 7.34
- logP [3]: < -2

Structure (SMILES): CC[S+]([O-])C(=O)N(C)O (stereo not shown) [Compound 3b]
- rate constant relative to thioester 2a [4]: exceed by several-fold that with the thioester 2 a
- k2, second order rate constant for acyl-interchange with glutathione ([4]; 50 mM potassium phosphate, pH 7.5, 5% ethanol, 25° C.): 9.83 ± 0.33 M⁻¹ s⁻¹

Structure (SMILES): C[C@@H](O)C(=O)SC[C@H](NC(=O)CC[C@H](N)C(=O)O)C(=O)NCC(=O)O [S-D-lactoylglutathione]
- growth of HL60 cells ([5]; literature (25)): inhibits the growth of HL60 cells in culture

Structure (SMILES): N[C@@H](CCC(=O)N[C@@H](CSCc1ccc(Br)cc1)C(=O)NCC(=O)O)C(=O)O [S-p-bromobenzylglutathione]
- effect on human leukemia HL60 cells ([5]; literature): both cytostatic and cytotoxic to these cells
